Values quoted from earlier work, collected in patent publication US20080089861A1, “Combination therapy for treatment of demyelinating conditions” (priority 2006, published 2008).
Entries after “also recorded” stand apart in the source; their conditions may differ.

Details: human

CC12CC3CC(C)(C1)CC(N)(C3)C2 [Memantine, 1-amino-3,5-dimethyladamantane]
Dose Dependent Tox: Dose escalation; also recorded: hallucination
